Data reported in paper PMC11775380, “Discovery of Novel Nav1.7-Selective Inhibitors with the 1H-Indole-3-Propionamide Scaffold for Effective Pain Relief” (Research, 2025).

Target: T1, human Nav1.7 (hNav1.7) (Homo sapiens, UniProt Q15858)
T1 construct: expressed in transfected cells; host or cells: HEK293T
Assay: Whole-cell patch-clamp inhibition of Nav1.7 currents in transfected HEK293T cells
Assay type: cell-based
Conditions: for inhibition at 10 µM: HEK-293T, 10 μM compound, inhibition rate of Nav1.7, read-out: Inhibitory activity (10 μM); for IC50: −80 mV holding, step to V1/2 of inactivation for 8 s, HEK293T
Experimental: Human embryonic kidney (HEK) 293T (ATCC CRL-3216) and ND7/23 cells (National Collection of Authenticated Cell Cultures SCSP-5026) were cultured under standard conditions (5% CO2, 37 °C) in Dulbecco’s modified Eagle’s medium (DMEM) containing 10% fetal bovine serum and 1% penicillin-streptomycin solution(all from Gibco, Thermo Fisher Scientific, Waltham, MA, USA). When the cells reached 70% to 90% confluence, human Nav1.2 (hNav1.2), human Nav1.3 (hNav1.3), human Nav1.4 (hNav1.4), human Nav1.5 (hNav1.5), and mouse Nav1.6 (mNav1.6) channel plasmids were cotransfected with enhanced green fluorescent protein (eGFP) into HEK293T cells. Additionally, plasmids expressing β1 and β2 subunits tagged with eGFP were cotransfected with the human Nav1.7 (hNav1.7) channel into HEK293T cells. Human Nav1.8 (hNav1.8) was transiently transfected into ND7/23 cells, along with eGFP, using Lipofectamine 2000 (Invitrogen), adhering strictly to the manufacturer’s protocol. For manual patch-clamp experiments, the cells were plated onto glass coverslips and used within 20 to 48 h of transfection.
Whole-cell patch-clamp recordings were conducted at 25 ± 2 °C, utilizing an EPC 10USB patch-clamp amplifier (HEKA Elektronik, Lambrecht, Germany). Pipettes, with access resistance between 2.0 and 3.0 MΩ, were pulled from borosilicate glass capillary tubes using a 2-step vertical microelectrode puller (PC-10, Narishige Group, Tokyo, Japan). Voltage-clamp recordings were obtained with PatchMaster software v2 × 73 (HEKA Elektronik) 5 min after establishing whole-cell configuration, sampled at 20 kHz, and filtered at 5 kHz. To minimize voltage errors, 80% series resistance compensation was applied. Pipettes were filled with 140 mM CsF, 10 mM NaCl, 1 mM EGTA, and 10 mM HEPES (pH=7.4, adjusted with CsOH). The external solution contained 140 mM NaCl, 2 mM CaCl2, 1 mM MgCl2, 5 mM KCl, 10 mM HEPES, and 10 mM glucose (pH=7.4, adjusted with NaOH). IC50 values were determined in HEK293T or ND7/23 cell lines by voltage clamping at −80 mV, followed by stepping to the V1/2 of inactivation for 8 s to facilitate compound binding.

T1 sequence (Q15858 whole entry): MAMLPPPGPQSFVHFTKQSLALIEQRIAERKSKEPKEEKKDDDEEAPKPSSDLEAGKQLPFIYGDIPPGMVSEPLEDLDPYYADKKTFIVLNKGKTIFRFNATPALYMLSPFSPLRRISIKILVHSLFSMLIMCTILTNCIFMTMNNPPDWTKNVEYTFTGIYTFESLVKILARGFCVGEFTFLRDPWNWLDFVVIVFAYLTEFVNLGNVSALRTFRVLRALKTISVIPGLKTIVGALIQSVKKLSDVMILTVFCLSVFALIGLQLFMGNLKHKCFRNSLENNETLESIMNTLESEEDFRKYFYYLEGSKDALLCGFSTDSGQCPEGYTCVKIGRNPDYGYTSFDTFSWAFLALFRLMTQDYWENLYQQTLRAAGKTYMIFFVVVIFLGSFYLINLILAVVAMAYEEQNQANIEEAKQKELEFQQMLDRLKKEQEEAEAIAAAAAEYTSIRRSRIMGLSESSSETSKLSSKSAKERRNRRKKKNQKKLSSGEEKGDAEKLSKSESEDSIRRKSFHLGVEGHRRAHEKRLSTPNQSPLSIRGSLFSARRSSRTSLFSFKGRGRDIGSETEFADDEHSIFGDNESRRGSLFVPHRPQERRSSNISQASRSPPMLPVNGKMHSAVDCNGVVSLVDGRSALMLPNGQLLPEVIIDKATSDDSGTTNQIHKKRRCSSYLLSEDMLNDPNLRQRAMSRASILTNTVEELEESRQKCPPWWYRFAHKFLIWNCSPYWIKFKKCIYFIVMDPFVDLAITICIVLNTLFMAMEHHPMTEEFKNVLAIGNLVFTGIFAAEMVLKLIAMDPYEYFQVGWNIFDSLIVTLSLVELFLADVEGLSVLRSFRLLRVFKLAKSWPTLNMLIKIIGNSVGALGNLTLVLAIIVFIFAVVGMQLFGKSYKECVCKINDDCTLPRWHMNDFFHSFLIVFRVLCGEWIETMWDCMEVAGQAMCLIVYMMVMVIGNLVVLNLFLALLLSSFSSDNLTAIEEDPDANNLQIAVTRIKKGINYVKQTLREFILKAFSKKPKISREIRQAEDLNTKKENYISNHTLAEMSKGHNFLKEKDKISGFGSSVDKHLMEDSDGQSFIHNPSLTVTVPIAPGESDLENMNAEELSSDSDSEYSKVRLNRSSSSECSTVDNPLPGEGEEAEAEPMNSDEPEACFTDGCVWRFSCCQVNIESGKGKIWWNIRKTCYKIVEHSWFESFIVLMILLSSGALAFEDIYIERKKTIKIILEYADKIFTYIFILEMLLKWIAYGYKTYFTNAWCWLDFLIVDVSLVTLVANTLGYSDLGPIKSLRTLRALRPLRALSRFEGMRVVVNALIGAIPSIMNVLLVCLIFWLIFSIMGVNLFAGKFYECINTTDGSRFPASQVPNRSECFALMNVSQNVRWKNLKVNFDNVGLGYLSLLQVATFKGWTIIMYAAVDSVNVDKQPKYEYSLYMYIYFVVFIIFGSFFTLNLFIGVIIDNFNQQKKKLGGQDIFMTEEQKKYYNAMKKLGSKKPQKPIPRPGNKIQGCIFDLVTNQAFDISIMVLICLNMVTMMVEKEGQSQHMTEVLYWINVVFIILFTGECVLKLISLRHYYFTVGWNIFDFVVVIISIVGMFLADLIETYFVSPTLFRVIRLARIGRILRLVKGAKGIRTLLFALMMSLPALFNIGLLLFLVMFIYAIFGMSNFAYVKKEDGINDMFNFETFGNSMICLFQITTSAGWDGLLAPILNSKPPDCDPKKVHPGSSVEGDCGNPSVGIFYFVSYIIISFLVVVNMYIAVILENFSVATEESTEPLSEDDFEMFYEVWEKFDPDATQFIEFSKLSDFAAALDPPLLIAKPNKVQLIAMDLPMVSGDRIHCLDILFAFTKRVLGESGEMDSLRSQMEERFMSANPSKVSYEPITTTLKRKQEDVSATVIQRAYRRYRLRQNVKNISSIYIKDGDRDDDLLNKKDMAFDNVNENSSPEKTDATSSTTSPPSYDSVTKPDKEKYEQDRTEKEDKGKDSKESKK
T1 sequence (Q07699 19-218 partner): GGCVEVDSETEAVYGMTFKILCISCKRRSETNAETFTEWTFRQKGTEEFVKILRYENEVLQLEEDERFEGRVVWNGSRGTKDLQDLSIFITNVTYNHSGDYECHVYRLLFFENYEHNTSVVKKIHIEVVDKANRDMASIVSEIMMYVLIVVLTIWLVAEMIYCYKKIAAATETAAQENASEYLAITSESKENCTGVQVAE
T1 sequence (O60939 30-215 partner): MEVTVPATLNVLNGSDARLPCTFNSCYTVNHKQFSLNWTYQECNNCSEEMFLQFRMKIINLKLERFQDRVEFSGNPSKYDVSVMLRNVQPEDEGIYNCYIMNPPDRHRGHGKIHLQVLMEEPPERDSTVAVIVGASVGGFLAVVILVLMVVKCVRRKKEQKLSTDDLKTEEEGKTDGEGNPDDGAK

Cc1cccc(C(CC(=O)NCCc2ccccc2)c2cn(Cc3ccc(F)cc3)c3ccccc23)c1 (stereo not drawn) [B5, CC1=CC(=CC=C1)C(CC(=O)NCCC2=CC=CC=C2)C3=CN(C4=CC=CC=C43)CC5=CC=C(C=C5)F]
inhibition at 10 µM: 2.93%

O=C(CC(c1cccc(Oc2ccccc2)c1)c1cn(Cc2ccc(F)cc2)c2ccccc12)NCCc1ccccn1 (stereo not drawn) [B28, C1=CC=C(C=C1)OC2=CC=CC(=C2)C(CC(=O)NCCC3=CC=CC=N3)C4=CN(C5=CC=CC=C54)CC6=CC=C(C=C6)F]
inhibition at 10 µM: 29.2%

COc1ccc(C(CC(=O)NCCc2ccccn2)c2cn(Cc3ccc(F)cc3)c3ccccc23)cc1OC (stereo not drawn) [B17, COC1=C(C=C(C=C1)C(CC(=O)NCCC2=CC=CC=N2)C3=CN(C4=CC=CC=C43)CC5=CC=C(C=C5)F)OC]
inhibition at 10 µM: 34.9%

COc1ccc(N2CC(C(=O)NC3CCCc4c3[nH]c3ccccc43)CC2=O)c(OC)c1 (stereo not drawn) [A8, COC1=CC(=C(C=C1)N2CC(CC2=O)C(=O)NC3CCCC4=C3NC5=CC=CC=C45)OC]
inhibition at 10 µM: 12.1%

O=C(CC(c1ccc(F)cc1)c1cn(Cc2ccccc2)c2ccccc12)NC1CC1 (stereo not drawn) [B8, C1CC1NC(=O)CC(C2=CC=C(C=C2)F)C3=CN(C4=CC=CC=C43)CC5=CC=CC=C5]
inhibition at 10 µM: 13.6%

O=C(CC(c1ccc(C(F)(F)F)cc1)c1cn(Cc2ccccc2)c2ccccc12)NCCN1CCCC1 (stereo not drawn) [B11, C1CCN(C1)CCNC(=O)CC(C2=CC=C(C=C2)C(F)(F)F)C3=CN(C4=CC=CC=C43)CC5=CC=CC=C5]
inhibition at 10 µM: 7.97%

Cc1cccc(C(CC(=O)NCCC(C)C)c2cn(Cc3ccc(F)cc3)c3ccccc23)c1 (stereo not drawn) [B6, CC1=CC(=CC=C1)C(CC(=O)NCCC(C)C)C2=CN(C3=CC=CC=C32)CC4=CC=C(C=C4)F]
inhibition at 10 µM: 7.88%

O=C(CC(c1ccc(C(F)(F)F)cc1)c1cn(Cc2ccc(F)cc2)c2ccccc12)NCCc1ccccn1 (stereo not drawn) [WN1, C1=CC=C2C(=C1)C(=CN2CC3=CC=C(C=C3)F)C(CC(=O)NCCC4=CC=CC=N4)C5=CC=C(C=C5)C(F)(F)F]
inhibition at 10 µM: 73.2% | IC50: 3.96 ± 0.14 µM

NC(=O)CC(c1ccc(C(F)(F)F)cc1)c1cn(Cc2ccc(F)cc2)c2ccccc12 (stereo not drawn) [B4, C1=CC=C2C(=C1)C(=CN2CC3=CC=C(C=C3)F)C(CC(=O)N)C4=CC=C(C=C4)C(F)(F)F]
inhibition at 10 µM: 13.4%

Cn1cc(C(CC(=O)NCCc2ccccn2)c2ccc(C(F)(F)F)cc2)c2ccccc21 (stereo not drawn) [B38, CN1C=C(C2=CC=CC=C21)C(CC(=O)NCCC3=CC=CC=N3)C4=CC=C(C=C4)C(F)(F)F]
inhibition at 10 µM: 13.9%

O=C(CC(c1ccc(F)cc1)c1cn(Cc2ccccc2)c2ccccc12)NCCc1ccc(Cl)cc1Cl (stereo not drawn) [B1, C1=CC=C(C=C1)CN2C=C(C3=CC=CC=C32)C(CC(=O)NCCC4=C(C=C(C=C4)Cl)Cl)C5=CC=C(C=C5)F]
inhibition at 10 µM: 6.13%

COc1ccc(C(CC(=O)NCCc2ccccn2)c2cn(Cc3ccc(F)cc3)c3ccccc23)cc1 (stereo not drawn) [B20, COC1=CC=C(C=C1)C(CC(=O)NCCC2=CC=CC=N2)C3=CN(C4=CC=CC=C43)CC5=CC=C(C=C5)F]
inhibition at 10 µM: 37.5%

Cc1ccc(Cn2cc(C(CC(=O)NCCN(C)C)c3ccc(F)cc3)c3ccccc32)cc1 (stereo not drawn) [WN2]
inhibition at 10 µM: 91.5% | IC50: 0.73 ± 0.12 µM

CCOc1ccc(C(CC(=O)NCCc2ccccn2)c2cn(Cc3ccc(OC)cc3)c3ccccc23)cc1 (stereo not drawn) [B15, CCOC1=CC=C(C=C1)C(CC(=O)NCCC2=CC=CC=N2)C3=CN(C4=CC=CC=C43)CC5=CC=C(C=C5)OC]
inhibition at 10 µM: 20.5%

O=C(CC(c1cccc(Cl)c1)c1cn(Cc2ccc(F)cc2)c2ccccc12)NCC1COc2ccccc2O1 (stereo not drawn) [A7, FC(C=C1)=CC=C1CN2C=C(C(CC(NCC3COC(C=CC=C4)=C4O3)=O)C5=CC(Cl)=CC=C5)C6=CC=CC=C62]
inhibition at 10 µM: 58%

O=C(CC(c1ccc(OCc2ccccc2)cc1)c1cn(Cc2ccc(F)cc2)c2ccccc12)NCCc1ccccn1 (stereo not drawn) [B16, C1=CC=C(C=C1)COC2=CC=C(C=C2)C(CC(=O)NCCC3=CC=CC=N3)C4=CN(C5=CC=CC=C54)CC6=CC=C(C=C6)F]
inhibition at 10 µM: 4.16%

COc1cc(OC)cc(C(CC(=O)NCCc2ccccn2)c2cn(Cc3ccc(F)cc3)c3ccccc23)c1 (stereo not drawn) [B26, COC1=CC(=CC(=C1)C(CC(=O)NCCC2=CC=CC=N2)C3=CN(C4=CC=CC=C43)CC5=CC=C(C=C5)F)OC]
inhibition at 10 µM: 26.1%

O=C(CC(c1ccc(C(F)(F)F)cc1)c1cn(Cc2ccc(F)cc2)c2ccccc12)NCCN1CCOCC1 (stereo not drawn) [B24, C1COCCN1CCNC(=O)CC(C2=CC=C(C=C2)C(F)(F)F)C3=CN(C4=CC=CC=C43)CC5=CC=C(C=C5)F]
inhibition at 10 µM: 16%

O=C(CC(c1cccc(OCc2ccccc2)c1)c1cn(Cc2ccc(F)cc2)c2ccccc12)NCCc1ccccc1 (stereo not drawn) [A3, C1=CC=C(C=C1)CCNC(=O)CC(C2=CC(=CC=C2)OCC3=CC=CC=C3)C4=CN(C5=CC=CC=C54)CC6=CC=C(C=C6)F]
inhibition at 10 µM: 9.09%
